Assay results taken from ChEMBL document CHEMBL1201862, “PubChem BioAssay data set” (2004).
Calls of active or inactive are those of the source.

What was measured:
H4 = assay: Luminescence Cell-Based Dose Response HTS to Identify Activators of 5'UTR Stem-Loop Driven Prion Protein mRNA Translation in H4 Neuroglioblastoma Cells. [Related pubchem assays: 1829 (Project Summary), 1814 (Primary HTS)]; format: functional; conditions: Homo sapiens
[1] = Luminescence Cell-Based Dose Response HTS to Identify Activators of Luciferase Translation or Activity in H4 […] Cells. [Related pubchem assays: 1829 (Project Summary), 1814 (Primary HTS)]; format: functional
[2] = Luminescence Cell-Based Dose Confirmation HTS to Identify Activators of 5'UTR Stem-Loop Driven Alpha-Synuclein mRNA Translation in H4 Neuroglioblastoma Cells. [Related pubchem assays: 1829 (Project Summary), 1814 (Primary HTS)]; format: functional
[3] = molecular target: T1, RNA-binding protein pos-1 (Caenorhabditis elegans, UniProt G5EF15); assay: inhibitors of POS-1/mex-3 RNA binding, dose response, biochemical, fluorescence polarization (AID 1964);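 note: purified POS-1 fused to maltose binding protein made in E. coli; potency of compounds blocking POS-1 binding to fluorescent RNA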
T1 sequence (G5EF15 whole entry): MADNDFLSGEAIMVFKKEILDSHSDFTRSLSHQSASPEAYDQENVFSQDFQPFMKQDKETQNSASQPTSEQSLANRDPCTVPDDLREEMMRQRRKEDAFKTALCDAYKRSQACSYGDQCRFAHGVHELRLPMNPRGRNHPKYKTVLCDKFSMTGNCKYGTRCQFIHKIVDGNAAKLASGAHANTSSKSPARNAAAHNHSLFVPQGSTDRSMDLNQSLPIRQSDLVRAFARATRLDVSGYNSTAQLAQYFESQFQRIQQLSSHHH

Troponin, cardiac muscle = Troponin, cardiac muscle (Homo sapiens, UniProt P19429+P45379+P63316); assay: Fluorescence-based biochemical high throughput dose response assay for activators of the calcium sensitivity of cardiac Regulated Thin Filaments (RTF). [Related pubchem assays (depositor defined):AID493008, AID493018, AID504382, AID504383]; format: protein-complex assay
[4] = molecular target: T2, Zinc finger protein mex-5 (Caenorhabditis elegans, UniProt Q9XUB2); assay: MEX-5/TCR-2 RNA interaction inhibitors, dose response, biochemical, C. elegans, fluorescence polarization (AID 1960)
T2 sequence (Q9XUB2 whole entry): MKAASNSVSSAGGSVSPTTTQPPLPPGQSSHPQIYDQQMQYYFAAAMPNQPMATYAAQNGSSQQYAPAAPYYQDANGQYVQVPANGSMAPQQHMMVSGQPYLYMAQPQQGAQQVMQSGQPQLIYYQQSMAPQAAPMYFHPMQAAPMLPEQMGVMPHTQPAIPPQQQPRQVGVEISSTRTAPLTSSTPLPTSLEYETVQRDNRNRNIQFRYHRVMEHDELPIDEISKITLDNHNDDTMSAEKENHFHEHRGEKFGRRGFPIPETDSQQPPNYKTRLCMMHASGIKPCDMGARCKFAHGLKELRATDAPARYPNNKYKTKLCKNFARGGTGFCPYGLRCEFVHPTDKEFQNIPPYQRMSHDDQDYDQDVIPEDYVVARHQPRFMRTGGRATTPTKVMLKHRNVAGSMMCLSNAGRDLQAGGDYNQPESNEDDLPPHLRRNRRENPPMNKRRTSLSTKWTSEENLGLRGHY

[5] = molecular target: Heat shock protein HSP 90-alpha (Homo sapiens, UniProt P07900); format: functional, organism-based
[6] = cytotoxicity in HEK-293T cells, dose response, cytotoxicity control for TCR NF-kB inhibitor project, luminescence, T-cell screen hits (AID 489026); format: functional, cell-based;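 note: cells exposed to compound about 14 hours before the viability readout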
INS1 = assay: beta cell apoptosis inhibitors, cytokine rescue, dose response, luminescence, retest (AID 449756); format: functional, cell-based; conditions: Rattus norvegicus;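 note: cell death triggered by IL-1 beta plus TNF-alpha plus IFN-gamma mixture; protective hits raise ATP signal compared with cytokine alone wells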
Beta-galactosidase = Beta-galactosidase (Escherichia coli, UniProt Q8VNN2); assay: beta-galactosidase enzyme inhibitors and activators, dose response, artefact control for CCR6 antagonist project, biochemical, E. coli enzyme, set 3 (AID 504712); format: functional
Beta-galactosidase, sequence (Q8VNN2 whole entry): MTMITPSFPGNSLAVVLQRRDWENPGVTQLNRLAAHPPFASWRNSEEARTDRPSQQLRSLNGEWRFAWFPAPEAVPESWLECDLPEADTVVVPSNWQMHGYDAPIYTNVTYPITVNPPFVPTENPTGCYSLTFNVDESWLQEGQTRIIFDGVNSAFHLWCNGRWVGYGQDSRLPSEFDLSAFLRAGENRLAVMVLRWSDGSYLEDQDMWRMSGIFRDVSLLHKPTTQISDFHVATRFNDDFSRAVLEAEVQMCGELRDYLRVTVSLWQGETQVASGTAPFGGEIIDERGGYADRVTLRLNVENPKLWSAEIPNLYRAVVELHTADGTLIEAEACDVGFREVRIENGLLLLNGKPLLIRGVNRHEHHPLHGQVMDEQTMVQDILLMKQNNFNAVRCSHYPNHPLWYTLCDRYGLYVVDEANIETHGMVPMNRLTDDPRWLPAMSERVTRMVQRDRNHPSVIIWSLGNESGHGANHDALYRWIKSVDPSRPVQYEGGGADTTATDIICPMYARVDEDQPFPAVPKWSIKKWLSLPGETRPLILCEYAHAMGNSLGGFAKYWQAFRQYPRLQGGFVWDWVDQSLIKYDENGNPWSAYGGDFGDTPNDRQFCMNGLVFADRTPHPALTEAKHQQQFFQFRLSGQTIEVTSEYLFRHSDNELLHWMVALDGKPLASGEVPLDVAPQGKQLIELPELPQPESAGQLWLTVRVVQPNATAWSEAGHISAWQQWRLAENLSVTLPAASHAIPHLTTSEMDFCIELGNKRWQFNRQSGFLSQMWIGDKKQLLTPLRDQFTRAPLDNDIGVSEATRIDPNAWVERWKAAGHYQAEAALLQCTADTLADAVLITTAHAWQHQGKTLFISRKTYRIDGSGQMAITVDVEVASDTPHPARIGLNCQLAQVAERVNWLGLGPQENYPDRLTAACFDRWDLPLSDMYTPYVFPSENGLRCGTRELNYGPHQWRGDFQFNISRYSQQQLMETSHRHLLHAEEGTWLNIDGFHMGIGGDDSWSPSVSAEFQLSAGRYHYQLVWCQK

Cytochrome P450 3A4 = Cytochrome P450 3A4 (Homo sapiens, UniProt P08684); conditions: Potency;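 note: confirmatory qHTS run detecting inhibitors and substrates of CYP3A4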
[7] = molecular target: Melanin-concentrating hormone receptor 1 (Homo sapiens, UniProt Q99705); assay: Fluorescence-based counterscreen for antagonists of the G-protein coupled receptor 7 (GPR7): cell-based high throughput dose response assay to identify antagonists of the melanin-concentrating hormone receptor 1 (MCHR1).; format: functional
Melanin-concentrating hormone receptor 1, sequence (Q99705 whole entry): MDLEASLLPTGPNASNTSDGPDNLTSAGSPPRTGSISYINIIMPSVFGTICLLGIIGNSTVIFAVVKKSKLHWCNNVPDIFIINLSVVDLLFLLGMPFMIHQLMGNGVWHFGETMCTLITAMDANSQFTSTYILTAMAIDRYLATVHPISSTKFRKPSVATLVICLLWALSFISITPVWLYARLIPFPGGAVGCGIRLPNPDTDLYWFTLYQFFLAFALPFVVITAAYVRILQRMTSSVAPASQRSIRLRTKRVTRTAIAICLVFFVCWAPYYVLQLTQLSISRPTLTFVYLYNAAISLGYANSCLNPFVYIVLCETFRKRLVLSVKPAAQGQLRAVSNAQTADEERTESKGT

[8] = molecular target: T3, Neuropeptides B/W receptor type 1 (Homo sapiens, UniProt P48145); assay: Fluorescence-based dose response cell-based high throughput screening assay to identify antagonists of the G-protein coupled receptor 7 (GPR7). [Related pubchem assays: 1952 (Screening assay (GPR7 antagonists).), 1880 (Summary AID.)]; format: functional
T3 sequence (P48145 whole entry): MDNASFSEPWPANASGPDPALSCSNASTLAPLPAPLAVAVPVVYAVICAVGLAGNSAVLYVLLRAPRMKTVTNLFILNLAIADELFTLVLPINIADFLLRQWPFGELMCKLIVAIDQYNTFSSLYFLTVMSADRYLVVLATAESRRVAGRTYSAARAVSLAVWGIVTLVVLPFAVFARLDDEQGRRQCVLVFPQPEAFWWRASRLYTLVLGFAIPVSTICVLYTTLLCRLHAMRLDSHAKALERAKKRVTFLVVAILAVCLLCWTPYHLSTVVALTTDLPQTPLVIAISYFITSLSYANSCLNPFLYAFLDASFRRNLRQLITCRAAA

H9c2 = assay: cells; format: functional, cell-based; conditions: Rattus norvegicus, H9c2, Myocardium;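 note: confirmatory concentration-response retest of ultra-high-throughput screening hits for modulation of myocardial damage; cell death induced by hydrogen peroxide oxidative stress; compound pretreatment for 60 min then peroxide exposure for 2 h; potency is for protecting the cells against peroxide damage rather than for killing them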
[9] = molecular target: T4, Microphthalmia-associated transcription factor (Homo sapiens, UniProt O75030); assay: TRPM1 promoter luciferase signal decrease, dose response, MITF inhibitor project, cell-based, SK-MEL-5, cherry-picked, set 3 (AID 493073); format: functional
T4 sequence (O75030 whole entry): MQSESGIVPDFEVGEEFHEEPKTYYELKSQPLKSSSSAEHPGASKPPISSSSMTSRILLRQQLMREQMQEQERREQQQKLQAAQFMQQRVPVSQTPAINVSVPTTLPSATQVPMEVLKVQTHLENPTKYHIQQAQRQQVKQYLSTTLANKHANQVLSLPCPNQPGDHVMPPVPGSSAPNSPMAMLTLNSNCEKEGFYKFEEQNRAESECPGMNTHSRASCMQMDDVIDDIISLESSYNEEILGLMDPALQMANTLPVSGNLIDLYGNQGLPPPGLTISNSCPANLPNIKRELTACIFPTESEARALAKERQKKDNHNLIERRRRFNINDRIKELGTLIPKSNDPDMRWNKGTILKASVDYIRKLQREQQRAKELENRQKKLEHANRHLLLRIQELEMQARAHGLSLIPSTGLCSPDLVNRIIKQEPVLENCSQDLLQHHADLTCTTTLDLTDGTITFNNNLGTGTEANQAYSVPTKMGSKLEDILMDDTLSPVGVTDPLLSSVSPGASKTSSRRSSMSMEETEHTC

[10] = AlphaScreen signal interference compounds, dose response, artefact control for ARNT-TACC3 interaction inhibitor project, biochemical, luminescence, cherry-pick (AID 651705); format: functional;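 note: AlphaScreen bead proximity signal that flags compounds interfering with the detection technology; potency reflects signal decrease which marks the compound as an assay artifact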
[11] = molecular target: T5, Voltage-gated N-type calcium channel alpha-1B subunit/Amyloid beta A4 precursor protein-binding family A member 1 (Homo sapiens, UniProt Q00975+Q02410); format: protein assay
T5 sequence (Q00975 whole entry): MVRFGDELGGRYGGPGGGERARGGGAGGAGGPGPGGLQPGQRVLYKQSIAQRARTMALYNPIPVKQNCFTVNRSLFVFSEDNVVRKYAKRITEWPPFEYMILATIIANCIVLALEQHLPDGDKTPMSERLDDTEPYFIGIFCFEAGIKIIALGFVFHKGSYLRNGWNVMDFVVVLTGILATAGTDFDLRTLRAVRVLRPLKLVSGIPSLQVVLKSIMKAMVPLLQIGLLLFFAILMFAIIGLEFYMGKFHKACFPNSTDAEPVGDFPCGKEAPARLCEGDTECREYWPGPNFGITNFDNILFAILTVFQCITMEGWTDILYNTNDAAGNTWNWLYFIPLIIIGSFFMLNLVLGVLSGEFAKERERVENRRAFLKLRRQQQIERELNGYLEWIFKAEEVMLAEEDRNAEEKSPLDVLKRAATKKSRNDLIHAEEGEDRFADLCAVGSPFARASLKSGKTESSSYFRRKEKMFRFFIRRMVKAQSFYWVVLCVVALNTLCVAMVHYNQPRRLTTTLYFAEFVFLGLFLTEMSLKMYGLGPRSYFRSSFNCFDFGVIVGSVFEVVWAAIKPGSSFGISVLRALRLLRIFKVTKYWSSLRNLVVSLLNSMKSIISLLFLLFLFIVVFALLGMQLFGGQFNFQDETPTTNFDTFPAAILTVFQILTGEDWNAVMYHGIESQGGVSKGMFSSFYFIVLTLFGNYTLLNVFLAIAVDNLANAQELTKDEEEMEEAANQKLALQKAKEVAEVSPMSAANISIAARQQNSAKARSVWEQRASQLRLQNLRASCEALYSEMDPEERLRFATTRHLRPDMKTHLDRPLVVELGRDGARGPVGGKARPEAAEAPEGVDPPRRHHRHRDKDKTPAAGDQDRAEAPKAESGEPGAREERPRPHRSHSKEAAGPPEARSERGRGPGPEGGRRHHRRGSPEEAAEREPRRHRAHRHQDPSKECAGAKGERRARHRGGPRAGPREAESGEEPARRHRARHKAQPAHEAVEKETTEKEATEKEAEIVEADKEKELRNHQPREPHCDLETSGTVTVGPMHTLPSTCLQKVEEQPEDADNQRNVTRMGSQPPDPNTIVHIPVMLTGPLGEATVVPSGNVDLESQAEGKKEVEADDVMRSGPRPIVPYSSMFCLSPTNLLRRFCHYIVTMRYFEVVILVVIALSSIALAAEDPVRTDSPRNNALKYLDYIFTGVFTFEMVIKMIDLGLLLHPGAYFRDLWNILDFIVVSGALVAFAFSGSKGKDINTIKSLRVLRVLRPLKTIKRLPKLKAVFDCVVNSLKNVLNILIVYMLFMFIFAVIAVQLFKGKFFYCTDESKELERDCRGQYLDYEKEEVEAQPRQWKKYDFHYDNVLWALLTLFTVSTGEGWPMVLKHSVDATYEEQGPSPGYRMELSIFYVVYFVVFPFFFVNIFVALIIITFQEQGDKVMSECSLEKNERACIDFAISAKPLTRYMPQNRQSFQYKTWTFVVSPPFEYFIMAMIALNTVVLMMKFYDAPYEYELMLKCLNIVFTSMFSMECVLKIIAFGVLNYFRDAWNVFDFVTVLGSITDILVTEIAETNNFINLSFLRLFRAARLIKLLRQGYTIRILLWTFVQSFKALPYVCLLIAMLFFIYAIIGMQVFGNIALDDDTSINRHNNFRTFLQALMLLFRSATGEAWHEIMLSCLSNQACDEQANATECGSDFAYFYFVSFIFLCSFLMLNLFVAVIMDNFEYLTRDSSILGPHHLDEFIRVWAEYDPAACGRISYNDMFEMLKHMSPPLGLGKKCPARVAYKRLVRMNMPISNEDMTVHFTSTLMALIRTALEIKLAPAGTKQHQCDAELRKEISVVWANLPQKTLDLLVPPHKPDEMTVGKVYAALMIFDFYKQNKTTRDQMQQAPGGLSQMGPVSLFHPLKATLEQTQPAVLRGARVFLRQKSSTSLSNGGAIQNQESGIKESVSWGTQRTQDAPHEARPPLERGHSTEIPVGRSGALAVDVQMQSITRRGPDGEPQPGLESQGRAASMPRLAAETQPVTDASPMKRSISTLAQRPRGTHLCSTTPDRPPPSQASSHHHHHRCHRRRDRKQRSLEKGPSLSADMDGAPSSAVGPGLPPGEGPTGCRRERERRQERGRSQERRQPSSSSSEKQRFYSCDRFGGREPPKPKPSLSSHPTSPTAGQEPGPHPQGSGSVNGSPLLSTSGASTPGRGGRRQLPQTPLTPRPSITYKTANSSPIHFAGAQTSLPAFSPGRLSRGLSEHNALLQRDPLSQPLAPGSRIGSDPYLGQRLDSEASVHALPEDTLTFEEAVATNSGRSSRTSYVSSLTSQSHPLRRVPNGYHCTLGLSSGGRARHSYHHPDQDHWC
T5 sequence (Q02410 whole entry): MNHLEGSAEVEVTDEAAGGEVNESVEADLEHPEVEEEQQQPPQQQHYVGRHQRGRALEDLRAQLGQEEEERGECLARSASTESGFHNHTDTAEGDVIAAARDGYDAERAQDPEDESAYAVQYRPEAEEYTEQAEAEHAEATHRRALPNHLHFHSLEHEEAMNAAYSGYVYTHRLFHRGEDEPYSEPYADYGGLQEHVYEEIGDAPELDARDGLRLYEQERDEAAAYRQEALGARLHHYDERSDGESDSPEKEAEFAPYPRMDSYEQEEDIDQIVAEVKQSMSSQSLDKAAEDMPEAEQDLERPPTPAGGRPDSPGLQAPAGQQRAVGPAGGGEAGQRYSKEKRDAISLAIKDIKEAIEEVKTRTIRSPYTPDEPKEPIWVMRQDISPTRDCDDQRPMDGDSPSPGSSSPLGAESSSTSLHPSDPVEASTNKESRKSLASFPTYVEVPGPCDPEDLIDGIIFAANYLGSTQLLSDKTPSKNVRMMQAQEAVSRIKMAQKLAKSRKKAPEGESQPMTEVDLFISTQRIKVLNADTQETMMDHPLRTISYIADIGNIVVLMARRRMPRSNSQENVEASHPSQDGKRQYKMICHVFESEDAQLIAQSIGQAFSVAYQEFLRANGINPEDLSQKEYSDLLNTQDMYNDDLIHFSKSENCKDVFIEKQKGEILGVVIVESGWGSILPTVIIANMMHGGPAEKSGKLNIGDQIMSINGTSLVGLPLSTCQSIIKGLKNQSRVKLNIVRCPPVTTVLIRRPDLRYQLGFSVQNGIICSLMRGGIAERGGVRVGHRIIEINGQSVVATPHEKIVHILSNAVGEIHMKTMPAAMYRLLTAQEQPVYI

[12] = molecular target: T5, Voltage-gated N-type calcium channel alpha-1B subunit/Amyloid beta A4 precursor protein-binding family A member 1; format: protein assay; remark: listed apart in the source
Cytochrome P450 2C9 = Cytochrome P450 2C9 (Homo sapiens, UniProt P11712)
[13] = molecular target: DNA dC->dU-editing enzyme APOBEC-3G (Homo sapiens, UniProt Q9HC16); assay: Dose Response confirmation of small molecule APOBEC3G DNA Deaminase Inhibitors via a fluorescence-based single-stranded DNA deaminase assay. [Related pubchem assays (depositor defined):AID493012, AID493028]; format: functional
DNA dC->dU-editing enzyme APOBEC-3G, sequence (Q9HC16 whole entry): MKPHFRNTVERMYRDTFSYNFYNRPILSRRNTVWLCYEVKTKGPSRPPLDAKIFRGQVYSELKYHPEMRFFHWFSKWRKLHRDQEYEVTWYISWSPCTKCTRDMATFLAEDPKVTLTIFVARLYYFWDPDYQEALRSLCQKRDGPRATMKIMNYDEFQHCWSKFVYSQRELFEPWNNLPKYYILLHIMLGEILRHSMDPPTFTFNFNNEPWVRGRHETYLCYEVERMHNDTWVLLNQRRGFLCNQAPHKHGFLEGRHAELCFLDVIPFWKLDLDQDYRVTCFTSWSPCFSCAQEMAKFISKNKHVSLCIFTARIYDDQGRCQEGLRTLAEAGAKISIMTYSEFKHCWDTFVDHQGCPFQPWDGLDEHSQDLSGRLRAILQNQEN

[14] = inhibitors of SNCA 5'UTR-driven reporter translation, confirmation, H4 neuroglioma cells, luminescence (AID 1988); format: functional, cell-based
[15] = Luminescence Cell-Based Dose Response HTS to Identify Inhibitors of 5'UTR Stem-Loop Driven Prion Protein mRNA Translation in H4 Neuroglioblastoma Cells. [Related pubchem assays: 1827 (Project Summary), 1813 (Primary HTS)]; format: functional
[16] = inhibitors of firefly luciferase expression or activity, dose response, H4 neuroglioma cells, luminescence (AID 1990); format: functional, cell-based
[17] = molecular target: T6, Carboxy-terminal domain RNA polymerase II polypeptide A small phosphatase 1 (Homo sapiens, UniProt Q9GZU7); assay: inhibitors of CTDSP1, concentration-response testing, biochemical assay, absorbance-based, actives from ultra-high-throughput screening (AID 540297); format: functional
T6 sequence (Q9GZU7 whole entry): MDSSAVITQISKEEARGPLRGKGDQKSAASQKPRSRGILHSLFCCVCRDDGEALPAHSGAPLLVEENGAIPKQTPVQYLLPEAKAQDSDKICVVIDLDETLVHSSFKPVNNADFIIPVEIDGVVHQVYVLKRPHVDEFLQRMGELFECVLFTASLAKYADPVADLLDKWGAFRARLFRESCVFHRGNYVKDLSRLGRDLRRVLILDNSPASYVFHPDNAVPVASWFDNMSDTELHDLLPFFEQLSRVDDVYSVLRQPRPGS

Nonstructural protein 1 = Nonstructural protein 1 (Influenza A virus, UniProt Q194T2); format: functional, Influenza A virus (A/California/07/2009(H1N1))

With Cc1cc(/C=C2\SC(=S)N(Cc3ccco3)C2=O)c(C)n1-c1cccnc1 the EC50 (H4) was 3.71 µM (active), the EC50 [1] was 119 µM (active) and the EC50 [2] was 45.2 µM (active). For the same compound, the EC50 [3] was 11.3 µM (inconclusive), the EC50 (Troponin, cardiac muscle) was > 2.65 µM (active) and the EC50 [4] was 20.2 µM (inconclusive).

For Cc1ccc(O)c(N=Nc2nccs2)c1, the AC50 [5] was 2.1 µM (active), the IC50 [6] was > 80 µM (inactive) and the AC50 (INS1) was 1.15 µM (active). The IC50 (Beta-galactosidase) was > 66.6 µM (inactive).

For COc1ccc(-c2oc3cc(O[C@@H]4OC(CO)C(O)C(O)C4O)c(OC)c(O)c3c(=O)c2OC)cc1O (some centres not stated), the AC50 (Cytochrome P450 3A4) was 25.1 µM (inconclusive).

With CCOC(=O)CSc1nnc(-c2ccc(S(=O)(=O)NCc3cccs3)cc2)o1 the IC50 [7] was > 43.8 µM (not active) and the IC50 [8] was > 43.8 µM (not active).

With CC(Oc1ccccc1)C(=O)Nc1nc(-c2ccccn2)cs1 (configuration not stated) the IC50 (H9c2) was > 79 µM (inactive), the AC50 [9] was 14 µM (active) and the IC50 (Beta-galactosidase) was > 66.6 µM (inactive). The AC50 [10] was 84.7 µM (active).

For COc1ccccc1NS(=O)(=O)c1cc(NC(=O)c2ccncc2)ccc1N1CCCC1, the IC50 [11] was > 50 µM (inactive) and the IC50 [12] was 29 µM (active).

With COc1ccc2nc(C)c3cc(C)oc3c2c1 the EC50 (Troponin, cardiac muscle) was > 71.4 µM (inactive).

With Cc1cc(C)cc(N2C(=O)CC(Sc3nnnn3-c3ccccc3)C2=O)c1 (configuration not stated) the AC50 (Cytochrome P450 2C9) was “inconclusive” and the IC50 (Beta-galactosidase) was > 66.6 µM (inactive).

In the case of N#CC1=C2SCN(c3ccc(F)cc3)CN2C(=O)CC1c1cccc(F)c1 (configuration not stated), the IC50 [11] is reported as > 50 µM (inactive) and the IC50 [12] is reported as 1.59 µM (active).

For O=[N+]([O-])c1ccc(N2CCN(Cc3ccccc3)CC2)nc1, the IC50 [7] was 22.8 µM (not active) and the IC50 [8] was 33.4 µM (not active).

In the case of CC(Sc1ccc2nnc(-c3ccc(F)cc3)n2n1)C(=O)O (configuration not stated), the IC50 [13] is reported as 21 µM (active).

In the case of O=C(c1ccc2c(c1)OCO2)N(CC1CCCO1)C1(C(=O)NC2CCCC2)CCCCC1 (configuration not stated), the IC50 [7] is reported as > 43.8 µM (not active) and the IC50 [8] is reported as > 43.8 µM (not active).

For C=COc1ccc(N2C(=O)c3ccccc3OC2C)cc1 (configuration not stated), the EC50 (Troponin, cardiac muscle) was > 71.4 µM (inactive).

For CCCN(CCC)CCOc1cc(C)ccc1C(C)C, the EC50 [14] was > 120 µM (not active), the IC50 [7] was 6.6 µM (active) and the EC50 [15] was > 120 µM (not active). For the same compound, the IC50 [8] was 10.9 µM (not active) and the EC50 [16] was > 120 µM (not active).

For CC(=O)c1ccc(NC(=O)c2ccc(NC(=O)c3ccco3)cc2)cc1, the IC50 [13] was 25.3 µM (active).

In the case of CC(/C=C/c1ccco1)=N\NC(=O)c1cccnc1, the IC50 [17] is reported as 21.3 µM (active), the IC50 [11] is reported as 17.8 µM (active) and the IC50 [12] is reported as 9.19 µM (active).

For C/C(=N\NC(=O)C1CCCN(S(=O)(=O)c2ccccc2)C1)c1ccccn1 (configuration not stated), the IC50 (Nonstructural protein 1) was 22.2 µM (active), the IC50 (Beta-galactosidase) was > 66.6 µM (inactive) and the AC50 [10] was 77.8 µM (active).
